# In the oligonucleotide strings, read from the 5' end, every base follows the letter of its sugar. An asterisk marks phosphorothioate; unmarked linkages are phosphodiester. Other units and linkages are bracketed, terminal groups are in braces. A string of capitals states the bases alone. d = 2'-deoxy (DNA)
# Columns and labels:
# [1] = target: T1, murine TLR9 (Mus musculus, UniProt Q9EQU3); assay: 293 fibroblasts stably transfected with murine TLR9 and NF-κB-luciferase reporter, ODN stimulation; settings: for course of activity (EC50) curves with time: ODN with less stable diester linkages; for EC50: read-out: EC50 (concentration of the ligand stimulus that results in 50% maximal activation), NF-κB luciferase induction, stimulated for 16 hours, ODN titrated between 10 μM and 2 nM, FIG. 6
# T1 sequence (Q9EQU3 26-1032): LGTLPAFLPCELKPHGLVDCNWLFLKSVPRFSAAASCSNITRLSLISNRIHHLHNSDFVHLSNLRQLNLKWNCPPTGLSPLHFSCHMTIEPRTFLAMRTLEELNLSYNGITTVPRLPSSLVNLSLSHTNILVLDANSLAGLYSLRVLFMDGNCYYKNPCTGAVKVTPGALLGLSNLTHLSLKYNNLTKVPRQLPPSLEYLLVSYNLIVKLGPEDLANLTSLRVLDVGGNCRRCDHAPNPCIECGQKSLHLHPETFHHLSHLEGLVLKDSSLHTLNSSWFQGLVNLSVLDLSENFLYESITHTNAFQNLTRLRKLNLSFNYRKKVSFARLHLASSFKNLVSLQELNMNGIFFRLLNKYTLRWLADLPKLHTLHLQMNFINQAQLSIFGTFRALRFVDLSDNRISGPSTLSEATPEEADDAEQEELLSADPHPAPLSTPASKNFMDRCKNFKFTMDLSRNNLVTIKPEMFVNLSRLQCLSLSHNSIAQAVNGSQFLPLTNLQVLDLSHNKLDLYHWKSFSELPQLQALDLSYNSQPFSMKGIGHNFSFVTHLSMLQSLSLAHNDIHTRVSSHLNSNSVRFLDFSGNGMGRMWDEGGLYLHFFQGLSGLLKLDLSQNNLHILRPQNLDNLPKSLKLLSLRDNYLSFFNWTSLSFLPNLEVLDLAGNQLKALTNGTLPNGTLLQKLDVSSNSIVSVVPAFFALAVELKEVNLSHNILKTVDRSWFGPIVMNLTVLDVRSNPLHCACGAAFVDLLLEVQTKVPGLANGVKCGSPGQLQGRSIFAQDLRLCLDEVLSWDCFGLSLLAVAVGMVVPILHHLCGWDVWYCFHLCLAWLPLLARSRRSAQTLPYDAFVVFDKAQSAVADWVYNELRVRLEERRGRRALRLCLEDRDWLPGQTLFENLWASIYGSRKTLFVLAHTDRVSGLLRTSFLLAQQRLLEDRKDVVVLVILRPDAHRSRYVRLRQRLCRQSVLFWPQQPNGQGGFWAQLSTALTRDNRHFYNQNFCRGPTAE
# Method: (§1) Human 293 fibroblast cells stably transfected with murine TLR9 and an NF-κB-luciferase reporter were stimulated for 16 hours with the following fully phosphorothioated oligodeoxynucleotides (ODN):
# (§2) Concentration of the stimulus was titrated between 10 μM and 2 nM. […] EC50 is defined as the concentration of the ligand stimulus that results in 50% maximal activation.
# (§3) A family of stimulation curves was determined at various times of assay incubation between 1 and 24 hours. The EC50 was determined for each ligand at each time point.
# [2] = target: T1, murine TLR9
# Method: as §1, §2, §3
# [3] = target: T2, hTLR9 (Homo sapiens, UniProt Q9NR96); assay: 293 fibroblasts transiently transfected with hTLR9, NF-κB-luc readout or IL-8 ELISA; assay type: cell-based; settings: CpG-ODN 2006 2 μM, LPS 100 ng/ml; 8 h luciferase, 48 h IL-8; FIG. 1
# T2 construct: expressed in transfected cells; host or cells: human 293 fibroblasts (ATCC CRL-1573), transient transfection by the calcium phosphate method
# T2 sequence (Q9NR96 26-1032): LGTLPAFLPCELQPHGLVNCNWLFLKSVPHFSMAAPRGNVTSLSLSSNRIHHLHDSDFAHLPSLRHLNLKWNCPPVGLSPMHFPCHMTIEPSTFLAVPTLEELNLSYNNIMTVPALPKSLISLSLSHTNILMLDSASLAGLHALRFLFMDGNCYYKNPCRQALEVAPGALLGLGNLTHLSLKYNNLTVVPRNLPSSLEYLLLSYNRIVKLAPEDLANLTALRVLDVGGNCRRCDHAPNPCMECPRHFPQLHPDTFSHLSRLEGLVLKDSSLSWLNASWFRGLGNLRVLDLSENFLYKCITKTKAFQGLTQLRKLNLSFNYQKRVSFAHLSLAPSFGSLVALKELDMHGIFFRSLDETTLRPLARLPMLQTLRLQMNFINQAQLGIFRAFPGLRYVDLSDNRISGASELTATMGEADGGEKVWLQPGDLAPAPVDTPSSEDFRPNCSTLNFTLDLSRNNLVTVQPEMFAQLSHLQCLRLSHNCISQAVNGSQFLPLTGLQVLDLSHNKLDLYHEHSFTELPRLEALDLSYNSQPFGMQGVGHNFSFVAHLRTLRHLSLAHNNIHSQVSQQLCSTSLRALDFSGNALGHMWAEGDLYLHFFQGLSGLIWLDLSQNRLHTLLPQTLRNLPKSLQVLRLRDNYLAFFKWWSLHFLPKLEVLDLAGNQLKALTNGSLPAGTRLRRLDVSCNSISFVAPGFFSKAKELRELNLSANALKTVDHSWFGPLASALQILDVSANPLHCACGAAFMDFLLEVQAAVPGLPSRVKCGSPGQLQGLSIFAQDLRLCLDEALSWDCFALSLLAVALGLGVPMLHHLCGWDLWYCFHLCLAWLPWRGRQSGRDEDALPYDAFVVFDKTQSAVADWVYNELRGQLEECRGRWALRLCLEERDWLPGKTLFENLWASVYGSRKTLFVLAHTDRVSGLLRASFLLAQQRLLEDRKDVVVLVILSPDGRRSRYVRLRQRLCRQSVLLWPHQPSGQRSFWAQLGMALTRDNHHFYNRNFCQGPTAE
# Source text: Methods for cloning murine and human TLR9 have been described in pending U.S. patent application Ser. No. 09/954,987 and corresponding published PCT application PCT/US01/29229, both filed Sep. 17, 2001, the contents of which are incorporated by reference. Human TLR9 cDNA and murine TLR9 cDNA in pT-Adv vector (from Clonetech) were individually cloned into the expression vector pcDNA3.1(−) from Invitrogen using the EcoRI site. Utilizing a “gain of function” assay it was possible to reconstitute human TLR9 (hTLR9) and murine TLR9 (mTLR9) signaling in CpG-DNA non-responsive human 293 fibroblasts (ATCC, CRL-1573). The expression vectors mentioned above were transfected into 293 fibroblast cells using the calcium phosphate method.
# Since NF-κB activation is central to the IL-1/TLR signal transduction pathway (Medzhitov R et al. (1998) Mol Cell 2:253-258 (1998); Muzio M et al. (1998) J Exp Med 187:2097-101), cells were transfected with hTLR9 or co-transfected with hTLR9 and an NF-κB-driven luciferase reporter construct. […] After stimulus with CpG-ODN (2006, 2 μM, […], SEQ ID NO:15), GpC-ODN (2006-GC, 2 μM, […], SEQ ID NO:16), LPS (100 ng/ml) or media, NF-κB activation by luciferase readout (8 h, FIG. 1A) or IL-8 production by ELISA (48 h, FIG. 1B) were monitored. […]
# [4] = assay incubation between 1 and 24 hours, FIG. 7
substance,measurement,setting,value
T*C_G*T*C_G*T*T*T*T_G*T*C_G*T*T*T*T*G*T*C_G*T*T [ODN 5746],course of activity (EC50) curves with time,[1]; [4],turn upward with time
T*C*C*A*T*G*A*C*G*T*T*T*T*T (dT*dC*dC*dA*dT*dG*dA*dC*dG*dT*dT*dT*dT*dT) [ODN 5897],EC50,[1],1220 nM
T*C*G*T*C*G*T*T*T*T_G_T_C_G_T*T*T*T*G*T*C*G*T*T [ODN 5497],course of activity (EC50) curves with time,[1]; [4],turn upward with time
T*C*C*A*T*G*A*C*G*T*T*T*T*T*G*A*T*G*T*T (TCCATGACGTTTTTGATGTT; chemistry not given here) [ODN 5890],maximal activity (maximal fold induction) versus time,[2],less efficient at delivering high activity
same,affinity of ligand/receptor interaction from EC50 versus time curves,[1]; [4],higher affinity
same,EC50,[1],42 nM
T*C*G*T*C*G*T*T*T*T*G*T*C*G*T*T*T*T*G*T*C*G*T*T [ODN 2006],"response of cells expressing hTLR9 (NF-κB activation by luciferase readout, IL-8 production by ELISA)",[3],responded
T*C*C*A*T*G*A*C_G_T*T*T*T*T*G*A*T_G*T*T [ODN 5902],course of activity (EC50) curves with time,[1]; [4],turn upward with time
lipopolysaccharide [LPS],"response of cells expressing hTLR9 (NF-κB activation by luciferase readout, IL-8 production by ELISA)",[3],not
